Data set [1] deals with HI650 (Lung Adenocarcinoma). Briefly: Cell viability analysis, lung cancer HI650. The conditions noted are these: Homo sapiens, NCI-H1650, 72 h, repeated experiment. Type of data set: cell-based, human.
The test system of data set [2] is A549 (Lung Adenocarcinoma). Briefly: Cell viability analysis, lung cancer A549. In kind it is cell-based, human. Conditions: Homo sapiens, A549, 72 h, repeated experiment.
In data set [3] the test system is AGS (Gastric Adenocarcinoma). Briefly: Cell viability analysis, gastric cancer AGS. In kind it is cell-based, human. Conditions: Homo sapiens, 72 h, read-out: The results of antibiotic drug inhibiting cancer cell lines (cell viability analysis), AGS, repeated experiment.
The subject of data set [4] is MKN-45 (Gastric Adenocarcinoma). Briefly: Cell viability analysis, gastric cancer MKN-45. In kind it is cell-based, human. Conditions: Homo sapiens, MKN-45, 72 h, repeated experiment.
Data set [5] deals with HepG2 (Hepatocellular Carcinoma). Briefly: Cell viability analysis, hepatic cancer HepG2. The conditions noted are these: Homo sapiens, HepG2, 72 h, repeated experiment. In kind it is cell-based, human.
In data set [6] the test system is Hep3B (hepatocellular carcinoma). As to the kind of experiment: Cell viability analysis, hepatic cancer Hep3B. Conditions: Homo sapiens, Hep3B, 72 h, read-out: The results of antibiotic drug inhibiting cancer cell lines (cell viability analysis), Hep3B. In kind it is cell-based, human.
Data set [7] relates to LoVo (Colorectal Adenocarcinoma). Briefly: Cell viability analysis, colon cancer LoVo. Type of data set: cell-based, human. Conditions: Homo sapiens, LoVo, 72 h, read-out: The results of antibiotic drug inhibiting cancer cell lines (cell viability analysis), LoVo; repeated experiment.
The subject of data set [8] is A375 (Amelanotic Melanoma). Briefly: Cell viability analysis, skin cancer A375. In kind it is cell-based, human. The conditions noted are these: Homo sapiens, A-375, 72 h, repeated experiment.
Data set [9] deals with BCC (basal cell carcinoma). Briefly: Cell viability analysis, skin cancer BCC. In kind it is cell-based, human. The conditions noted are these: Homo sapiens, 72 h, read-out: The results of antibiotic drug inhibiting cancer cell lines (cell viability analysis), BCC.
The test system of data set [10] is HeLa (Cervix Adenocarcinoma). Briefly: Cell viability analysis, cervical cancer HeLa. Type of data set: cell-based, human.
Data set [11] deals with C-33A (Cervical carcinoma). Briefly: Cell viability analysis, cervical cancer C-33A. Type of data set: cell-based, human. The conditions noted are these: Homo sapiens, 72 h, read-out: The results of antibiotic drug inhibiting cancer cell lines (cell viability analysis), C-33A.
Data set [12] has as its system PC3 (p53−) (Prostate Adenocarcinoma). As to the kind of experiment: Cell viability analysis, prostate cancer PC3. Type of data set: cell-based, human. The conditions noted are these: Homo sapiens, 72 h, repeated experiment.
Data set [13] deals with TSGH-8301 (Urinary Bladder Carcinoma). Briefly: Cell viability analysis, bladder cancer TSGH-8301. The conditions noted are these: Homo sapiens, 72 h, repeated experiment. In kind it is cell-based, human.
For another data set, the system named is T24. Briefly: Cell viability analysis, bladder cancer T24. Conditions: Homo sapiens, T-24, 72 h, read-out: The results of antibiotic drug inhibiting cancer cell lines (cell viability analysis), T24. Type of data set: cell-based, human.
In data set [14] the test system is MCF7 (Mammary Gland, Adenocarcinoma). Briefly: Cell viability analysis, breast cancer MCF7. Type of data set: cell-based, human. Conditions: Homo sapiens, MCF7, 72 h, repeated experiment.
Data set [15] has as its system MDA-MB-231 (Mammary Gland, Adenocarcinoma). Briefly: Cell viability analysis, breast cancer MDA-MB-231. In kind it is cell-based, human. Conditions: Homo sapiens, MDA-MB-231, 72 h, read-out: The results of antibiotic drug inhibiting cancer cell lines (cell viability analysis), MDA-MB231.
In the next data set the test system is BxPC-3. Briefly: Cell viability analysis, pancreatic cancer BxPC-3. In kind it is cell-based, human. The conditions noted are these: Homo sapiens, read-out: The results of antibiotic drug inhibiting cancer cell lines (cell viability analysis), BxPC-3.
For another data set, the system named is AsPC-1. Briefly: Cell viability analysis, pancreatic cancer AsPC-1. The conditions noted are these: Homo sapiens, ASPC1, 72 h, read-out: The results of antibiotic drug inhibiting cancer cell lines (cell viability analysis), AsPC-1. Type of data set: cell-based, human.
Another data set has as its system NIH: OVCAR-3. As to the kind of experiment: Cell viability analysis, ovarian cancer NIH: OVCAR-3. Type of data set: cell-based, human. The conditions noted are these: Homo sapiens, read-out: The results of antibiotic drug inhibiting cancer cell lines (cell viability analysis), NIH-OVCAR-3.
Another data set deals with TOV-21G. As to the kind of experiment: Cell viability analysis, ovarian cancer TOV-21G. In kind it is cell-based, human. Conditions: Homo sapiens, TOV21G, 72 h, read-out: The results of antibiotic drug inhibiting cancer cell lines (cell viability analysis), TOV-21G.
Data set [16] relates to SAS (Tongue squamous cell carcinoma). As to the kind of experiment: Cell viability analysis, tongue cancer SAS. Type of data set: cell-based, human. Conditions: Homo sapiens, 72 h, read-out: The results of antibiotic drug inhibiting cancer cell lines (cell viability analysis), SAS.
The next data set concerns U-2OS. As to the kind of experiment: Cell viability analysis, osteosarcoma U-2OS. In kind it is cell-based, human. The conditions noted are these: Homo sapiens, U2OS, 72 h, read-out: The results of antibiotic drug inhibiting cancer cell lines (cell viability analysis), U2OS.
In data set [17] the test system is 786-O (Renal adenocarcinoma). As to the kind of experiment: Cell viability analysis, renal cancer 786-O. Type of data set: cell-based, human. The conditions noted are these: Homo sapiens, 786-0, 72 h, read-out: The results of antibiotic drug inhibiting cancer cell lines (cell viability analysis), 786-O.
Data set [18] relates to HCT116 (p53+) (Colorectal Carcinoma).
The mark [19] stands for this setting: H1650, read-out: The results of antibiotic drug inhibiting cancer cell lines (cell viability analysis), H1650.
Where [20] appears, read: MKN-45, read-out: The results of antibiotic drug inhibiting cancer cell lines (cell viability analysis), MKN-45.
Where [21] appears, read: HepG2, read-out: The results of antibiotic drug inhibiting cancer cell lines (cell viability analysis), HepG2.
The mark [22] stands for this setting: A375, read-out: The results of antibiotic drug inhibiting cancer cell lines (cell viability analysis), A375.
Where [23] appears, read: Homo sapiens, HeLa, 72 h, HeLa; repeated experiment; read-out: The results of antibiotic drug inhibiting cancer cell lines (cell viability analysis), HeLa.
Where [24] appears, read: PC-3, read-out: The results of antibiotic drug inhibiting cancer cell lines (cell viability analysis), PC-3.
The mark [25] stands for this setting: TSGH-8301, read-out: The results of antibiotic drug inhibiting cancer cell lines (cell viability analysis), TSGH-8301.
The mark [26] stands for this setting: MCF-7, read-out: The results of antibiotic drug inhibiting cancer cell lines (cell viability analysis), MCF-7.
The mark [27] stands for this setting: 72 h, BxPC-3, repeated experiment.
The mark [28] stands for this setting: 72 h, NIH-OVCAR-3, repeated experiment.

Like-named read-outs stand apart in the source and are kept apart here.

Experimental findings from patent US10105357B2, “Indication of antibiotic drugs for preparation of cancer inhibition pharmaceutical composition” (LAUNX BIOMEDICAL CO., LTD., priority 2014, dated 2018) are described below.

In general, viability refers to a read-out of living cells in per cent, often relative to untreated cells. For `CCCOc1ccc2nc(NC(=O)OC)[nH]c2c1` [Oxibendazole], the viability at 10 µM in data set [1] (read-out: The results of antibiotic drug inhibiting cancer cell lines (cell viability analysis), H1650, H1650) came out at 41.3%; in data set [2] (read-out: The results of antibiotic drug inhibiting cancer cell lines (cell viability analysis), A549, A549) it was 24%; in [3] it was 37.6%; in data set [4] (read-out: The results of antibiotic drug inhibiting cancer cell lines (cell viability analysis), MKN-45, MKN-45) it was 65.6%; in data set [5] (read-out: The results of antibiotic drug inhibiting cancer cell lines (cell viability analysis), HepG2, HepG2), 64.5%; in data set [6], 59.8%. The viability at 10 µM in [7] came to 53.4%; in [8] (read-out: The results of antibiotic drug inhibiting cancer cell lines (cell viability analysis), A375, A375), 31.8%; in [9], 34.3%; in data set [10] (Homo sapiens, HeLa, 72 h, read-out: The results of antibiotic drug inhibiting cancer cell lines (cell viability analysis), HeLa; repeated experiment), 29.3%; in data set [11] (C-33-A), 47.8%; in data set [12] (read-out: The results of antibiotic drug inhibiting cancer cell lines (cell viability analysis), PC-3, PC-3), 38.9%. Also, the viability at 10 µM in [13] (read-out: The results of antibiotic drug inhibiting cancer cell lines (cell viability analysis), TSGH-8301, TSGH-8301) amounted to 48.6%; in the data set with T24 it was 38.1%; in [14] (read-out: The results of antibiotic drug inhibiting cancer cell lines (cell viability analysis), MCF-7, MCF-7) it was 60.9%; in data set [15], 48.9%; in the data set on BxPC-3 (BXPC-3, 72 h), 29.1%; in the data set with AsPC-1 it was 33%. Moreover, the viability at 10 µM stood at 54.8% in the data set on NIH: OVCAR-3 (OVCAR-3, 72 h); 26.6% with TOV-21G; 41.2% in data set [16]; 46.6% in the data set with U-2OS; 18.5% in [17]. In addition, the viability in data set [18] was found to be 22.1%.

On to `COC(=O)Nc1nc2ccc([S+]([O-])c3ccccc3)cc2[nH]1` (centres unmarked) [Oxfendazole], for which the viability at 10 µM in data set [1] (setting [19]) was 64%; in data set [2] (A549, read-out: The results of antibiotic drug inhibiting cancer cell lines (cell viability analysis), A549), 64.7%; in data set [3] (AGS) it was 51.4%; in data set [4] (setting [20]) it was 79.9%; in data set [5] (setting [21]) it was 99.4%; in [6] (repeated experiment), 107%. Further, the viability at 10 µM in data set [7] worked out at 73.7%; in data set [8] (setting [22]), 59.7%; in data set [9] (BCC, repeated experiment), 55.3%; in data set [10] (setting [23]) it was 37%; in [11] (C-33A, repeated experiment), 86.4%; in data set [12] (setting [24]), 72.7%. Also, the viability at 10 µM turned out to be 67.6% in data set [13] (setting [25]); 70.2% in the data set with T24 (T24, repeated experiment); 64.6% in data set [14] (setting [26]); 73.9% in [15] (MDA-MB231, repeated experiment); 55% in the data set on BxPC-3 (setting [27]); 50.9% in the data set on AsPC-1 (AsPC-1, repeated experiment). Moreover, the viability at 10 µM in the data set with NIH: OVCAR-3 (setting [28]) was 62.2%; with TOV-21G (TOV-21G, repeated experiment) it was 65.1%; in data set [16] (SAS, repeated experiment), 72.3%; with U-2OS (repeated experiment), 83.4%; in [17] (786-O, repeated experiment) it was 72.3%. In addition, the viability in [18] worked out at 67.4%.

In the case of `CC[C@H](C)C(=O)O[C@H]1CCC=C2C=C[C@H](C)[C@H](CC[C@@H]3C[C@@H](O)CC(=O)O3)[C@H]21` [Mevastatin], the viability at 10 µM is 69.4% in data set [1] (setting [19]); 71.2% in data set [3] (AGS); 92.7% in data set [4] (setting [20]); 98.7% in data set [5] (setting [21]); 97.7% in [6] (repeated experiment); 90.5% in [7]. The viability at 10 µM was found to be 30.9% in [8] (setting [22]); 29.8% in data set [9] (BCC, repeated experiment); 90.5% in data set [10] (setting [23]); 102% in data set [11] (C-33A, repeated experiment); 65.6% in data set [12] (setting [24]); 94.4% in data set [13] (setting [25]). The viability at 10 µM with T24 (T24, repeated experiment) worked out at 67.5%; in data set [14] (setting [26]) it was 77.8%; in data set [15] (MDA-MB231, repeated experiment) it was 56.1%; with BxPC-3 (setting [27]) it was 83.6%; in the data set on AsPC-1 (AsPC-1, repeated experiment) it was 72.3%; in the data set with NIH: OVCAR-3 (setting [28]), 100%. The viability at 10 µM in the data set with TOV-21G (TOV-21G, repeated experiment) came out at 44.7%; in data set [16] (SAS, repeated experiment), 81%; with U-2OS (repeated experiment), 85.3%; in data set [17] (786-O, repeated experiment) it was 48%. Moreover, the viability in data set [18] was found to be 73.6%.
